Patent US20230398112A1, “SPRAY-DRIED METAL-ORGANIC FRAMEWORKS FOR TREATMENT AND/OR DIAGNOSIS OF PULMONARY DISEASE” (priority 2020, published 2023)

Experiments:
[1] = Thermogravimetric analysis (TGA), thermal stability; format: physicochemical; details: under air at 3° C./min
Procedure: The loss of ca 10 wt. % below 100° C. is attributable to crystallized water leading to a dark blue anhydrous Cu(POA)2 crystalline phase, which can also be instantaneously obtained by exposing the hydrated phase to various organic solvents (i.e. MeOH, EtOH and DMF). […] Fourier-transform infrared spectroscopy (FTIR) analysis also clearly distinguishes between the two phases, as an absorption band attributed to coordinated water at 3.400 cm^−1 can be seen for the hydrated form in FIG. 1D.

[2] = tested on: Mtb; details: delivered orally; cited from earlier work

## O=C(O)c1cnccn1 [POA, pyrazinoic acid]
[1]
  thermal stability (TGA): 100-200 °C
[2]
  efficacy as TB therapy: ineffective
